Experimental findings from a melting point compilation (Tetko et al.; mined from patent text by program, amines drawn as free bases though some values may be those of a salt) are described below.

The structures appear in SMILES notation. A value given as a limit tells only on which side of the number the result lay.

As usually defined, the melting point is the temperature of the solid-liquid transition. Regarding `OC1CSC(Oc2ccc(-c3ccnc(Cl)c3)nc2)C(O)C1O` (stereo not given), the melting point was 179 °C.
`Fc1ccc(-c2n[nH]c(-c3ccncc3)c2-c2ccncc2)cc1` had a melting point of 304 °C.
Consider `COc1ccccc1S(=O)(=O)N(C)c1cccc2cc(C3=NCC(CC(N)=O)S3)[nH]c12` (stereo not given), for which the melting point was in the range of 227 to 228 °C.
On to `Cc1cccc(C2(CCC(=O)O)NC(=O)NC2=O)c1` (stereo not given), for which the melting point fell in the range of 173 to 178 °C.
Turning to `Cc1cc(C)c(/C=C2\C(=O)N(CN3CCN(C)CC3)c3ccccc32)[nH]1`, the melting point is 160 to 164 °C.
Compound `O=C(O)c1ccc2c(c1)C=C(Cn1ccnc1)CO2` displayed a melting point of 258 to 259 °C.
Under `CCOC(=O)N1CCC(CCCOc2ccc(C3=NCCCO3)cc2)CC1` stands 128 °C; under `CCOC(=O)CNC(=O)CC(=O)CCl`, 96 to 97 °C; under `CC(C)(C)c1cc(CCc2ccccc2NC(=O)N2CCN(c3ccccc3)CC2)cc(C(C)(C)C)c1O`, 155 to 156 °C.
To `Cc1cccc(S(=O)(=O)n2ccc(Br)c2)c1C#N` belongs 98 to 100 °C.
Consider `O=C(O)C1=Cc2c(F)cccc21`, for which the melting point is 81 to 83 °C.
Under `CCOC(=O)c1ccc(-c2ccc3c(c2)OCO3)cc1` stands 92.5 to 93.5 °C; under `OC1CSC(Oc2cccc(-c3cc(Cl)ccn3)c2)C(O)C1O` (stereo not given), 97 to 105 °C.
For `CCOC(=O)C(=O)CC(=O)c1cn(Cc2ccc(F)cc2)c2cc(F)ccc2c1=O`, the melting point is 151 to 152 °C.
`COc1ccc(CN2C(=O)C(C)(c3cc(NC=O)ccc3Cl)c3cc(Cl)ccc32)c(OC)c1` (stereo not given) displayed a melting point of 190 °C.
In turn, `CCCN1CCN(c2nc(C)c(C(=O)NCc3cccnc3)s2)C1=O` registered a melting point of 109 to 111 °C.
`O=C(N1CCOCC1)N1CCN(Cc2ccc3c(c2)-c2[nH]nc(-c4ccsc4)c2C3)CC1` displayed a melting point of 188 to 190 °C.
The compound `CCOC(=O)C1=C(N)NC(c2ccccc2)=CC1c1ccccc1` (stereo not given) returned a melting point of 159 °C.
Under `O=C(Nc1nccs1)c1nc(-c2ccc(N3CCOCC3)cc2)[nH]c1-c1ccc(Cl)cc1` stands more than 260 °C; under `Cc1ccc(NC(=O)C(C)(C)C)c(-c2cccc(-c3cc(C)ccc3NC(=O)C(C)(C)C)n2)c1`, 181 to 184 °C; under `CC(C)(C)OC(=O)N[C@@H]1C(=O)N[C@H]1C1CCCCC1` (relative stereo), 130 to 132 °C.
On to `CSC(=Nc1ccccc1)Nc1ccccc1`, for which the melting point fell in the range of 105 to 106 °C.
Compound `N#Cc1cc(F)cc(-c2cc(Br)c3c(c2)C2(CCCCC2)C(=O)N3)c1` gave a melting point of 217 °C.
Turning to `Cc1cnc(CNC(=O)c2sc(N3CCN(CC4CC4)C3=O)nc2C)cn1`, the melting point lay within 161 to 163 °C.
The compound `Cn1c(-c2ccccc2)c(C=O)c2ccc(Cl)cc2c1=O` gave a melting point of 172 to 173 °C.
To `CCOC(=O)c1ccc(NC(=O)Cc2csc3nc(C(=O)NCc4cccc(OC)c4)[nH]c(=O)c23)cc1` belongs 222 to 223 °C; to `CSC(=NS(=O)(=O)c1ccc(C)cc1)N1CCc2nc(N)sc2C1`, 191 to 195 °C.
To `COC(=O)C(=O)c1ccccc1F` belongs 98 to 100 °C.
Regarding `O=S(=O)(Nc1ccc(F)cc1C(=NOc1ccc(Cl)cc1)c1ccccc1)C(F)(F)F`, the melting point was in the range of 90 to 93 °C.
With `N#CC(Cc1c[nH]cn1)(c1ccc(Cl)cc1)c1ccc(Cl)cc1`, the melting point fell in the range of 152 to 153 °C.
`Cn1c(COc2ccc(C=O)cc2)nc2cccnc21` yielded a melting point of 124 to 125 °C.
Under `CCOC(=O)c1cc2cccc(OC)c2[nH]1` stands 69 to 72 °C; under `CCn1c2cccc(C=O)c2c2c3ccccc3ccc21`, 90.5 to 91.5 °C.
For the compound `CC(C)(C)OC(=O)Nc1ccc2c3c(cc([N+](=O)[O-])c2c1)N(C(=O)C(F)(F)F)CC3CCl` (stereo not given), the melting point fell in the range of 219 to 220 °C.
With `COC(=O)CCc1ccc(N2CCCN(c3ccc(C#N)cc3)C2=O)cc1`, the melting point lay within 149 to 152 °C.
